Measured values as given in patent publication US9128097B2, “Method and kit for assessing viable cells” (ChemoMetec A/S, priority 2008, dated 2015).

Tested on: bone marrow derived dendritic cells (BM-DCs)
Experiment: Staining of bone marrow derived dendritic cells with labelling agent and PI
Assay type: cell-based, murine
Conditions: dendritic cells 97% viable; 10 μL NAM (100 μg pr. mL DMSO) to 90 μL cells
Description: Materials and Methods. Dendritic cells were developed from murine bone marrow derived cells as described by “Lutz, M. B., N. Kukutsch, A. L. Ogilvie, S. Rossner, F. Koch, N. Romani, and G. Schuler. 1999. An advanced culture method for generating large quantities of highly pure dendritic cells from mouse bone marrow. J Immunol Methods 223:77-92”. Bone marrow cells were harvested aseptically in the laminar flow hood as described in example 11. Washed and resuspended bone marrow cells were resuspended in RPMI 1640 (Invitrogen, #61870) supplemented with 10% heat-inactivated fetal bovine serum (Invitrogen, #10108-165), 100 U/mL penicillin and 100 μg/mL streptomycin (Invitrogen, #15140-122). […] 90 μL dendritic cells (cell density 1.2×10^6, 97% viable determined using the NC-100 NucleoCounter system following the manufacturer's (ChemoMetec A/S) protocol) were added 10 μL NAM (N-(9-acridinyl)maleimide, Sigma, #01665, CAS no. 49759-20-8) dissolved in DMSO (100 μg NAM pr. mL DMSO) and mixed by pipetting. […] The cells were investigated using an Olympus IX50 fluorescence microscope, and images were captured using a Lumenera CCD camera and in-house developed software. PI and NAM fluorescence were detected using, respectively, U-MWG2 (green long pass: 510-550 nm) and U-MNUA2 (UV band pass, 330-385 nm) filter cubes (Olympus). […]

## O=C1C=CC(=O)N1c1c2ccccc2nc2ccccc12 [NAM, N-(9-acridinyl)maleimide]
  staining of cells (UV filter) versus PI positive cells: nearly all the dendritic cells were stained by NAM
